# Measured values: publication PMC8294803, “A Roadmap to the Structure-Related Metabolism Pathways of Per- and Polyfluoroalkyl Substances in the Early Life Stages of Zebrafish (Danio rerio)” (Environmental Health Perspectives, 2021)
# Like-named read-outs stand apart in the source and are kept apart here.
# System: zebrafish embryos
# [1] = 5μM through 120 hpf, malformation rate
SMILES,"pericardial oedemata, Mean [1]","spinal curvature, Mean [1]","tail dysplasia, Mean [1]","Mortality (%) (5 µM, exposure through 120 hpf)",Mortality (%) (in vivo),"pericardial oedemata, Mean (in vivo)","spinal curvature, Mean (in vivo)","tail dysplasia, Mean (in vivo)"
"O=C(OC(=O)C(F)(F)C(F)(F)F)C(F)(F)C(F)(F)F [compound 43, Pentafluoropropanoic anhydride]",4.44%,0.00%,4.44%,5.6%,,,,
"CCN(CCO)S(=O)(=O)C(F)(F)C(F)(F)C(F)(F)C(F)(F)C(F)(F)C(F)(F)C(F)(F)C(F)(F)F [compound 9, N-Ethyl-N-(2-hydroxyethyl)perfluorooctanesulfonamide]",1.11%,0.00%,0.00%,1.1%,,,,
"NCC(F)(F)C(F)(F)C(F)(F)C(F)(F)F [compound 68, 1H,1H-Perfluoropentylamine]",0.00%,0.00%,0.00%,1.1%,,,,
"FC(F)=C(F)C(F)(F)C(F)(F)C(F)(F)C(F)F [compound 69, 6H-Perfluorohex-1-ene]",0.00%,0.00%,0.00%,0%,,,,
"FC(F)(F)C(F)(F)CNCC(F)(F)C(F)(F)F [compound 45, Bis(1H,1H-perfluoropropyl)amine]",1.11%,0.00%,1.11%,2.2%,,,,
"FCOC(C(F)(F)F)C(F)(F)F [compound 3, Sevoflurane, reference compound]",0.00%,2.22%,0.00%,1.1%,,,,
"NC(O)(C(F)(F)F)C(F)(F)F [compound 33, 2-Aminohexafluoropropan-2-ol]",0.00%,0.00%,0.00%,7.8%,,,,
"O=C(F)C(F)(F)C(F)(F)C(F)(F)C(=O)F [compound 63, Perfluoroglutaryl difluoride]",0.00%,0.00%,0.00%,5.6%,,,,
"OCCC(F)(F)C(F)(F)C(F)(F)C(F)(F)C(F)(F)C(F)(F)C(F)(F)C(F)(F)F [compound 64, 8:2 Fluorotelomer alcohol]",0.00%,2.22%,0.00%,3.3%,,,,
"FC(F)(F)COC(OCC(F)(F)F)OCC(F)(F)F [compound 1, tris(Trifluoroethoxy)methane]",2.22%,2.22%,2.22%,0%,,,,
"FC(F)OCC(F)(F)C(F)(F)F [compound 52, Difluoromethyl 1H,1H-perfluoropropyl]",1.11%,0.00%,0.00%,2.2%,,,,
"OC(O)(C(F)C(O)(O)C(F)(F)F)C(F)(F)F [compound 66, 3H-Perfluoro-2,2,4,4-tetrahydroxypentane]",0.00%,0.00%,0.00%,1.1%,,,,
"CC(F)(F)CC(F)(F)F [compound 29, 1,1,1,3,3-Pentafluorobutane]",0.00%,0.00%,0.00%,3.3%,,,,
"CC(=O)C(F)(F)C(F)(F)F [compound 55, Methyl perfluoroethyl ketone]",1.11%,2.22%,0.00%,2.2%,,,,
"O=C(O)C(F)(OC(F)(F)C(F)(F)C(F)(F)F)C(F)(F)F (stereo not shown) [compound 37, Perfluoro-2-methyl-3-oxahexanoic acid]",2.22%,0.00%,1.11%,1.1%,,,,
"CCOC(F)(F)C(F)(F)C(F)(F)C(F)(F)F [compound 65, Ethyl perfluorobutyl ether]",0.00%,0.00%,0.00%,0%,,,,

SMILES,"pericardial oedemata, Mean [1]","spinal curvature, Mean [1]","tail dysplasia, Mean [1]","Mortality (%) (5 µM, exposure through 120 hpf)",Mortality (%) (in vivo),"pericardial oedemata, Mean (in vivo)","spinal curvature, Mean (in vivo)","tail dysplasia, Mean (in vivo)"
"O=CC(F)(F)C(F)(F)C(F)(F)C(F)F [compound 72, 5H-Perfluoropentanal]",0.00%,0.00%,0.00%,3.3%,,,,
"C=CC(F)(F)C(F)(F)C(F)(F)C(F)(F)F [compound 59, 1H,1H,2H-Perfluoro-1-hexene]",0.00%,1.11%,0.00%,4.4%,,,,
"OCCC(F)(F)C(F)(F)C(F)(F)C(F)(F)F [compound 41, 4:2 Fluorotelomer alcohol]",3.33%,0.00%,0.00%,0%,,,,
"OCC(F)(F)C(F)(F)C(F)(F)F [compound 11, Heptafluorobutanol]",4.44%,2.22%,0.00%,1.1%,,,,
"CC(O)C(F)(F)C(F)(F)F (stereo not shown) [compound 62, 1-Pentafluoroethylethanol]",1.11%,0.00%,1.11%,6.7%,,,,
"O=C(F)C(F)(F)C(F)(F)C(F)(F)C(F)F [compound 51, 5H-Octafluoropentanoyl fluoride]",,,,,0,1.11%,0.00%,3.33%
"O=S(=O)(F)C(F)(F)C(F)(F)C(F)(F)C(F)(F)F [compound 8, Perfluorobutanesulfonyl fluoride]",0.00%,1.11%,3.33%,2.2%,,,,
"FC(F)(F)COCC(F)(F)F [compound 27, Flurothyl, reference compound]",2.22%,0.00%,0.00%,1.1%,,,,
"O=CC(F)(F)C(F)(F)C(F)(F)F [compound 42, Perfluorobutyraldehyde]",2.22%,2.22%,0.00%,0%,,,,
"C=CC(F)(C(F)(F)F)C(F)(F)C(F)(F)F (stereo not shown) [compound 25, 2-Vinylperfluorobutane]",0.00%,0.00%,0.00%,1.1%,,,,
"CC=CC(F)(F)C(F)(F)C(F)(F)F [compound 22, 1-Propenylperfluoropropane]",0.00%,0.00%,0.00%,3.3%,,,,
"FC(F)=C(F)OC(F)(F)C(F)(F)C(F)(F)F [compound 53, Heptafluoropropyl trifluorovinyl ether]",0.00%,1.11%,0.00%,2.2%,,,,
"COC(F)(F)C(F)(C(F)(F)F)C(F)(F)F [compound 44, Perfluoroisobutyl methyl ether]",,,,,1.1,1.11%,1.11%,0.00%
"C=CCOC(F)(C(F)(F)F)C(F)(F)F [compound 18, Allyl perfluoroisopropyl ether]",0.00%,0.00%,0.00%,3.3%,,,,
"NC(C(F)(F)F)C(F)(F)F [compound 71, 2-Amino-2H-perfluoropropane]",0.00%,0.00%,0.00%,3.3%,,,,
